Results on 28 molecules are retold here after patent publication US10071086B2, “1H-pyrazolo[3,4-b]pyridines and therapeutic uses thereof” (Samumed, LLC, priority 2012, dated 2018).

This test deals with Wnt pathway. Put plainly: Wnt activity reporter assay (SP5 promoter-luciferase in SW480 cells). It is filed as cell-based. To be noted: Homo sapiens, SP5 promoter firefly luciferase reporter, read-out: Wnt inhibition. An excerpt:
The above synthesized compounds were screened using the assay procedure for Wnt activity described below.
Reporter cell lines can be generated by stably transducing cells of cancer cell lines (e.g., colon cancer) with a lentiviral construct that include a wnt-responsive promoter driving expression of the firefly luciferase gene.
Lentiviral constructs can be made in which the SP5 promoter, a promoter having eight TCF/LEF binding sites derived from the SP5 promoter, is linked upstream of the firefly luciferase gene. The lentiviral constructs can also include a hygromycin resistance gene as a selectable marker. The SP5 promoter construct can be used to transduce SW480 cells, a colon cancer cell line having a mutated APC gene that generates a truncated APC protein, leading to de-regulated accumulation of β-catenin.
Cultured SW480 cells bearing a reporter construct can be distributed at approximately 10,000 cells per well into 96 well or 384 well plates. Compounds from a small molecule compound library can then be added to the wells in half-log dilutions using a ten micromolar top concentration. A series of control wells for each cell type receive only buffer and compound solvent. Twenty-four to forty hours after the addition of compound, reporter activity for luciferase can be assayed, for example, by addition of the BrightGlo luminescence reagent (Promega) and the Victor3 plate reader (Perkin Elmer). Readings can be normalized to DMSO only treated cells, and normalized activities can then be used in the IC50 calculations.
In general terms: In a reporter assay the amount or activity of a reporter protein is the signal.

SMILES strings stand for the structures.

`CN(C)c1cncc(-c2cnc3[nH]nc(-c4nc5c(-c6ccsc6)cncc5[nH]4)c3c2)c1` [Compound 346, N,N-Dimethyl-5-(3-(7-(thiophen-3-yl)-3H-imidazo[4,5-c]pyridin-2-yl)-1H-pyrazolo[3,4-b]pyridin-5-yl)pyridin-3-amine]: the IC50 is 56 nM. Regarding `CN(C)Cc1cncc(-c2cnc3[nH]nc(-c4nc5c(-c6ccsc6)cncc5[nH]4)c3c2)c1` [Compound 352, N,N-Dimethyl-1-(5-(3-(7-(thiophen-3-yl)-3H-imidazo[4,5-c]pyridin-2-yl)-1H-pyrazolo[3,4-b]pyridin-5-yl)pyridin-3-yl)methanamine], the IC50 worked out at 57 nM.

With `c1cc(-c2cncc3[nH]c(-c4n[nH]c5ncc(-c6cncc(CN7CCCCC7)c6)cc45)nc23)cs1` [Compound 354, 5-(5-(Piperidin-1-ylmethyl)pyridin-3-yl)-3-(7-(thiophen-3-yl)-3H-imidazo[4,5-c]pyridin-2-yl)-1H-pyrazolo[3,4-b]pyridine], the IC50 stood at 293 nM. Turning to `CC(C)(C)C(=O)Nc1cncc(-c2cnc3[nH]nc(-c4nc5c(-c6ccoc6)cncc5[nH]4)c3c2)c1` [Compound 373, N-(5-(3-(7-(Furan-3-yl)-3H-imidazo[4,5-c]pyridin-2-yl)-1H-pyrazolo[3,4-b]pyridin-5-yl)pyridin-3-yl)pivalamide], the IC50 worked out at 70 nM.

As to `O=C(Nc1cncc(-c2cnc3[nH]nc(-c4nc5c(-c6ccoc6)cncc5[nH]4)c3c2)c1)c1ccccc1` [Compound 376, N-(5-(3-(7-(Furan-3-yl)-3H-imidazo[4,5-c]pyridin-2-yl)-1H-pyrazolo[3,4-b]pyridin-5-yl)pyridin-3-yl)benzamide], the IC50 amounted to 51 nM.

For `CCCC(=O)Nc1cncc(-c2cnc3[nH]nc(-c4nc5c(-c6ccoc6)cncc5[nH]4)c3c2)c1` [Compound 382, N-(5-(3-(7-(Furan-3-yl)-3H-imidazo[4,5-c]pyridin-2-yl)-1H-pyrazolo[3,4-b]pyridin-5-yl)pyridin-3-yl)butyramide], the IC50 was 3 nM.

As to `CCC(=O)Nc1cncc(-c2cnc3[nH]nc(-c4nc5c(-c6cccs6)cncc5[nH]4)c3c2)c1` [Compound 440, N-(5-(3-(7-(Thiophen-2-yl)-3H-imidazo[4,5-c]pyridin-2-yl)-1H-pyrazolo[3,4-b]pyridin-5-yl)pyridin-3-yl)propionamide], the IC50 came out at 4 nM. Under `c1cncc(-c2cnc3[nH]nc(-c4nc5c(-c6cccs6)cncc5[nH]4)c3c2)c1` [Compound 443, 5-(Pyridin-3-yl)-3-(7-(thiophen-2-yl)-3H-imidazo[4,5-c]pyridin-2-yl)-1H-pyrazolo[3,4-b]pyridine] stands 1 nM.

`O=C(Nc1cncc(-c2cnc3[nH]nc(-c4nc5c(-c6cccs6)cncc5[nH]4)c3c2)c1)C1CC1` [Compound 458, N-(5-(3-(7-(Thiophen-2-yl)-3H-imidazo[4,5-c]pyridin-2-yl)-1H-pyrazolo[3,4-b]pyridin-5-yl)pyridin-3-yl)cyclopropanecarboxamide]: the IC50 came to 22 nM.

For the molecule `c1csc(-c2cncc3[nH]c(-c4n[nH]c5ncc(-c6cncc(CNCC7CCCC7)c6)cc45)nc23)c1` [Compound 463, 1-Cyclopentyl-N-((5-(3-(7-(thiophen-2-yl)-3H-imidazo[4,5-c]pyridin-2-yl)-1H-pyrazolo[3,4-b]pyridin-5-yl)pyridin-3-yl)methyl)methanamine], the IC50 came out at 98 nM.

For the molecule `CCNCc1cncc(-c2cnc3[nH]nc(-c4nc5c(-c6cccc(F)c6)cccc5[nH]4)c3c2)c1` [Compound 547, N-((5-(3-(4-(3-Fluorophenyl)-1H-benzo[d]imidazol-2-yl)-1H-pyrazolo[3,4-b]pyridin-5-yl)pyridin-3-yl)methyl)ethanamine], the IC50 was found to be 97 nM.

Take `CC(C)Nc1cncc(-c2cnc3[nH]nc(-c4nc5c(-c6cccc(F)c6)cccc5[nH]4)c3c2)c1` [Compound 551, 5-(3-(4-(3-Fluorophenyl)-1H-benzo[d]imidazol-2-yl)-1H-pyrazolo[3,4-b]pyridin-5-yl)-N-isopropylpyridin-3-amine]: the IC50 turned out to be 33 nM. On to `CN(C)Cc1cncc(-c2cnc3[nH]nc(-c4nc5c(-c6cccc(F)c6)cccc5[nH]4)c3c2)c1` [Compound 552, 1-(5-(3-(4-(3-Fluorophenyl)-1H-benzo[d]imidazol-2-yl)-1H-pyrazolo[3,4-b]pyridin-5-yl)pyridin-3-yl)-N,N-dimethylmethanamine], for which the IC50 was determined as 22 nM. Consider `Fc1cccc(-c2cccc3[nH]c(-c4n[nH]c5ncc(-c6cncc(CN7CCCCC7)c6)cc45)nc23)c1` [Compound 554, 3-(4-(3-Fluorophenyl)-1H-benzo[d]imidazol-2-yl)-5-(5-(piperidin-1-ylmethyl)pyridin-3-yl)-1H-pyrazolo[3,4-b]pyridine], for which the IC50 amounted to 200 nM. For `CCCCC(=O)Nc1cncc(-c2cnc3[nH]nc(-c4nc5c(-c6cccc(F)c6)cccc5[nH]4)c3c2)c1` [Compound 557, N-(5-(3-(4-(3-Fluorophenyl)-1H-benzo[d]imidazol-2-yl)-1H-pyrazolo[3,4-b]pyridin-5-yl)pyridin-3-yl)pentanamide], the IC50 amounted to 53 nM. As for `O=C(Nc1cncc(-c2cnc3[nH]nc(-c4nc5c(-c6cccc(F)c6)cccc5[nH]4)c3c2)c1)C1CCCC1` [Compound 560, N-(5-(3-(4-(3-Fluorophenyl)-1H-benzo[d]imidazol-2-yl)-1H-pyrazolo[3,4-b]pyridin-5-yl)pyridin-3-yl)cyclopentanecarboxamide], the IC50 amounted to 90 nM. Take `O=C(Nc1cncc(-c2cnc3[nH]nc(-c4nc5c(-c6cccc(F)c6)cccc5[nH]4)c3c2)c1)C1CCCCC1` [Compound 561, N-(5-(3-(4-(3-Fluorophenyl)-1H-benzo[d]imidazol-2-yl)-1H-pyrazolo[3,4-b]pyridin-5-yl)pyridin-3-yl)cyclohexanecarboxamide]: the IC50 turned out to be 143 nM.

For `O=C(Nc1cncc(-c2cnc3[nH]nc(-c4nc5c(-c6ccc(F)cc6)cccc5[nH]4)c3c2)c1)c1ccccc1` [Compound 573, N-(5-(3-(4-(4-Fluorophenyl)-1H-benzo[d]imidazol-2-yl)-1H-pyrazolo[3,4-b]pyridin-5-yl)pyridin-3-yl)benzamide], the IC50 was 82 nM.

Turning to `O=C(Nc1cncc(-c2cnc3[nH]nc(-c4nc5c(-c6ccc(F)cc6)cccc5[nH]4)c3c2)c1)C1CC1` [Compound 581, N-(5-(3-(4-(4-Fluorophenyl)-1H-benzo[d]imidazol-2-yl)-1H-pyrazolo[3,4-b]pyridin-5-yl)pyridin-3-yl)cyclopropanecarboxamide], the IC50 stood at 48 nM. In the case of `Fc1ccc(-c2cccc3[nH]c(-c4n[nH]c5ncc(-c6cncc(CNCC7CCCC7)c6)cc45)nc23)cc1` [Compound 586, 1-Cyclopentyl-N-((5-(3-(4-(4-fluorophenyl)-1H-benzo[d]imidazol-2-yl)-1H-pyrazolo[3,4-b]pyridin-5-yl)pyridin-3-yl)methyl)methanamine], the IC50 is 420 nM. As for `Fc1ccccc1-c1cccc2[nH]c(-c3n[nH]c4ncc(-c5cccnc5)cc34)nc12` [Compound 590, 3-(4-(2-Fluorophenyl)-1H-benzo[d]imidazol-2-yl)-5-(pyridin-3-yl)-1H-pyrazolo[3,4-b]pyridine], the IC50 is 20 nM.

`CC(C)(C)C(=O)Nc1cncc(-c2cnc3[nH]nc(-c4nc5c(-c6ccccc6F)cccc5[nH]4)c3c2)c1` [Compound 594, N-(5-(3-(4-(2-Fluorophenyl)-1H-benzo[d]imidazol-2-yl)-1H-pyrazolo[3,4-b]pyridin-5-yl)pyridin-3-yl)pivalamide]: the IC50 is 120 nM. For the molecule `O=C(Cc1ccccc1)Nc1cncc(-c2cnc3[nH]nc(-c4nc5c(-c6ccccc6F)cccc5[nH]4)c3c2)c1` [Compound 595, N-(5-(3-(4-(2-Fluorophenyl)-1H-benzo[d]imidazol-2-yl)-1H-pyrazolo[3,4-b]pyridin-5-yl)pyridin-3-yl)-2-phenylacetamide], the IC50 came to 354 nM. For `Fc1ccccc1-c1cccc2[nH]c(-c3n[nH]c4ncc(-c5cncc(CN6CCCC6)c5)cc34)nc12` [Compound 599, 3-(4-(2-Fluorophenyl)-1H-benzo[d]imidazol-2-yl)-5-(5-(pyrrolidin-1-ylmethyl)pyridin-3-yl)-1H-pyrazolo[3,4-b]pyridine], the IC50 turned out to be 220 nM.

With `CCCC(=O)Nc1cncc(-c2cnc3[nH]nc(-c4nc5c(-c6ccccc6F)cccc5[nH]4)c3c2)c1` [Compound 602, N-(5-(3-(4-(2-Fluorophenyl)-1H-benzo[d]imidazol-2-yl)-1H-pyrazolo[3,4-b]pyridin-5-yl)pyridin-3-yl)butyramide], the IC50 was found to be 18 nM. For `O=C(Nc1cncc(-c2cnc3[nH]nc(-c4nc5c(-c6ccccc6F)cccc5[nH]4)c3c2)c1)C1CCC1` [Compound 605, N-(5-(3-(4-(2-Fluorophenyl)-1H-benzo[d]imidazol-2-yl)-1H-pyrazolo[3,4-b]pyridin-5-yl)pyridin-3-yl)cyclobutanecarboxamide], the IC50 came to 18 nM.

Consider `CN(C)c1cncc(-c2cnc3[nH]nc(-c4nc5c(-c6cccnc6)cccc5[nH]4)c3c2)c1` [Compound 616, N,N-Dimethyl-5-(3-(4-(pyridin-3-yl)-1H-benzo[d]imidazol-2-yl)-1H-pyrazolo[3,4-b]pyridin-5-yl)pyridin-3-amine], for which the IC50 is 1410 nM. In the case of `CN(C)Cc1cncc(-c2cnc3[nH]nc(-c4nc5c(-c6cccnc6)cccc5[nH]4)c3c2)c1` [Compound 621, N,N-Dimethyl-1-(5-(3-(4-(pyridin-3-yl)-1H-benzo[d]imidazol-2-yl)-1H-pyrazolo[3,4-b]pyridin-5-yl)pyridin-3-yl)methanamine], the IC50 came to 36 nM.
